Experimental data as given in US8624036B2, “2-aryl-propionic acids and derivatives and pharmaceutical compositions containing them” (Dompe S.p.A., priority 2008, dated 2014).
Marks after values point to notes of the source that are not given here.

Legend:
[1] = test system: GRO-α induced chemotaxis of PMNs; assay: GRO-α (CXCL1) induced chemotaxis of human PMNs; assay type: cell-based; conditions: compound at 10^−8 M; for inhibition at 0.01 µM: Homo sapiens
Experimental: (§1) The compounds of the invention of formula (I) were evaluated in vitro for their ability to inhibit chemotaxis of polymorphonucleate leukocytes (hereinafter referred to as PMNs) and monocytes induced by the fractions of CXCL8 and GRO-α. For this purpose, in order to isolate the PMNs from heparinized human blood, taken from healthy adult volunteers, mononucleates were removed by means of sedimentation on dextran (W. J. Ming et al., J. Immunol., 138, 1469, 1987). The cell vitality was calculated by exclusion with Trypan blue, whilst the ratio of the circulating polymorphonucleates was estimated on the cytocentrifugate after staining with Diff Quick.
GRO-α induced chemotaxis inhibition was evaluated in an analogous assay.
(§2) In the chemotaxis experiments, the PMNs were incubated with the compounds of the invention of formula (I) for 15′ at 37° C. in an atmosphere containing 5% CO2. During the chemotaxis assay (W. Falket et al., J. Immunol. Methods, 33, 239, 1980) PVP-free filters with a porosity of 5 μm and microchambers suitable for replication were used.
(§3) The compounds of the invention in formula (I) were evaluated at a concentration ranging between 10^−6 and 10^−10 M; for this purpose they were added, at the same concentration, both to the lower pores and the upper pores of the microchamber. Evaluation of the ability of the compounds of the invention of formula (I) to inhibit the chemotaxis of human monocytes was carried out according to a disclosed method (J. Van Damme et al., Eur. J. Immunol., 19, 2367, 1989).

[2] = test system: CXCL8 induced chemotaxis of PMNs; assay: CXCL8 induced chemotaxis of human PMNs; assay type: cell-based; conditions: CXCL8 10^−9 M; for inhibition at 0.01 µM / inhibition at 0.001 µM: Homo sapiens; for inhibition at 0.01 µM: read-out: CXCL8 (% inhibition), tested at 10^−8 M; for inhibition at 0.001 µM / CXCL8 (% inhibition at 10^−9 M): compound at 10^−9 M
Experimental: as §1
In the CXCL8 induced chemotaxis assay human recombinant CXCL8 (Pepro Tech) was used as stimulating agent in the chemotaxis experiments: the lyophilized protein was dissolved in a volume of HBSS containing 0.2% bovin serum albumin (BSA) in order to obtain a stock solution having a concentration of 10^−5 M to be diluted in HBSS to a concentration of 10^−9 M, for the chemotaxis assays.
as §2, §3

[3] = test system: transient cerebral ischemia induced by occlusion of the middle cerebral artery; assay: Transient cerebral ischemia by middle cerebral artery (MCA) occlusion in rats; assay type: in vivo; conditions: short-term effect (24 hours)
Experimental: The compounds of the present invention are particularly useful in the prevention and treatment of damages caused by ischemia/reperfusion, specifically in the protection from the functional injury induced by temporary cerebral middle cerebral artery (MCA) occlusion. Specifically, compound 3a was evaluated in terms of efficacy in a model of transient cerebral ischemia induced in rats by occlusion of the middle cerebral artery (MCA). The short-term effect (24 hours) of 3a on cerebral myeloperoxidase (MPO) activity, a marker of PMN infiltration, brain damage and neurological deficits, was investigated.

[4] = compound at 10^−8 M (footnote *)

CC(C(=O)O)c1ccc(Nc2nc(C(F)(F)F)cs2)cc1 (stereo not drawn) [Compound 1, 2-(4-{[4-(Trifluoromethyl)-1,3-thiazol-2-yl]amino}phenyl)propanoic acid]
inhibition at 0.01 µM [1]: 40 ± 6%
inhibition at 0.01 µM [2, 4]: 43 ± 7%

CC(C)(C(=O)O)c1ccc(Nc2nc(C(F)(F)F)cs2)cc1 [Compound 2, 2-Methyl-2-(4-{[4-(trifluoromethyl)-1,3-thiazol-2-yl]amino}phenyl)propanoic acid]
inhibition at 0.01 µM [1]: 42 ± 9%
inhibition at 0.001 µM [2]: 56 ± 10%

C[C@H](C(=O)O)c1ccc(Nc2nc(C(F)(F)F)cs2)cc1 [Compound 3, (2S)-2-(4-{[4-(Trifluoromethyl)-1,3-thiazol-2-yl]amino}phenyl)propanoic acid]
inhibition at 0.01 µM [1]: 58 ± 6%
inhibition at 0.001 µM [2]: 66 ± 11%

C[C@H](C(=O)[O-])c1ccc(Nc2nc(C(F)(F)F)cs2)cc1.[Na+] [Compound 3a, Sodium (2S)-2-(4-{[4-(trifluoromethyl)-1,3-thiazol-2-yl]amino}phenyl)propanoate]
PMN infiltrate (cerebral myeloperoxidase (MPO) activity) [3]: efficacious in reducing PMN infiltrate
infarct size (brain damage) [3]: efficacious in reducing
neurological functions (neurological deficits) [3]: improving significantly neurological functions
CXCL1 (% inhibition at 10^−8 M) [1]: 55 ± 8%
CXCL8 (% inhibition at 10^−9 M) [2]: 64 ± 9%

Cc1csc(Nc2ccc(C(C)C(=O)O)cc2)n1 (stereo not drawn) [Compound 4, 2-{4-[(4-Methyl-1,3-thiazol-2-yl)amino]phenyl}propanoic acid]
inhibition at 0.01 µM [1]: 45 ± 10%
inhibition at 0.01 µM [2, 4]: 46 ± 6%

Cc1csc(Nc2ccc([C@H](C)C(=O)O)cc2)n1 [Compound 5, (2S)-2-{4-[(4-Methyl-1,3-thiazol-2-yl)amino]phenyl}propanoic acid]
inhibition at 0.01 µM [1]: 38 ± 10%
inhibition at 0.001 µM [2]: 40 ± 11%

CC(C(=O)O)c1ccc(Nc2nc(C(C)(C)C)cs2)cc1 (stereo not drawn) [Compound 6, 2-{4-[(4-tert-Butyl-1,3-thiazol-2-yl)amino]phenyl}propanoic acid]
inhibition at 0.01 µM [1]: 36 ± 10%
inhibition at 0.01 µM [2, 4]: 55 ± 10%

C[C@H](C(=O)O)c1ccc(Nc2nc(C(C)(C)C)cs2)cc1 [Compound 7, (2S)-2-{4-[(4-tert-Butyl-1,3-thiazol-2-yl)amino]phenyl}propanoic acid]
inhibition at 0.01 µM [1]: 45 ± 10%
inhibition at 0.001 µM [2]: 50 ± 8%

CC(C(=O)O)c1ccc(N(C)c2nc(C(F)(F)F)cs2)cc1 (stereo not drawn) [Compound 8, 2-(4-{Methyl[4-(trifluoromethyl)-1,3-thiazol-2-yl]amino}phenyl)propanoic acid]
inhibition at 0.01 µM [1]: 39 ± 10%
inhibition at 0.01 µM [2, 4]: 45 ± 5%

C[C@H](C(=O)O)c1ccc(N(C)c2nc(C(F)(F)F)cs2)cc1 [Compound 9, (2S)-2-(4-{methyl[4-(trifluoromethyl)-1,3-thiazol-2-yl]amino}phenyl)propanoic acid]
inhibition at 0.01 µM [1]: 40 ± 12%
inhibition at 0.001 µM [2]: 41 ± 7%

C[C@H](C(=O)NO)c1ccc(Nc2nc(C(F)(F)F)cs2)cc1 [Compound 10, (2S)—N-Hydroxy-2-(4-{[4-(trifluoromethyl)-1,3-thiazol-2-yl]amino}phenyl) propanamide]
inhibition at 0.01 µM [1]: 47 ± 12%
inhibition at 0.001 µM [2]: 51 ± 10%

C[C@H](C(=O)NS(C)(=O)=O)c1ccc(Nc2nc(C(F)(F)F)cs2)cc1 [Compound 11, (2S)—N-(Methylsulfonyl)-2-(4-{[4-(trifluoromethyl)-1,3-thiazol-2yl]amino}phenyl) propanamide]
inhibition at 0.01 µM [1]: 39 ± 7%
inhibition at 0.001 µM [2]: 54 ± 16%

C[C@H](C(=O)NS(=O)(=O)C(F)(F)F)c1ccc(Nc2nc(C(F)(F)F)cs2)cc1 [Compound 12]
CXCL1 (% inhibition at 10^−8 M) [1]: 30 ± 7%
CXCL8 (% inhibition), tested at 10^−8 M [2, 4]: 48 ± 13* %

C[C@H](C(N)=O)c1ccc(Nc2nc(C(F)(F)F)cs2)cc1 [Compound 13]
inhibition at 0.01 µM [1]: 44 ± 9%
melting point: 204 to 205 °C
inhibition at 0.001 µM [2]: 47 ± 3%

C[C@H](C(N)=O)c1ccc(N(C)c2nc(C(F)(F)F)cs2)cc1 [Compound 14, (2S)-2-(4-{Methyl[4-(trifluoromethyl)-1,3-thiazol-2-yl]amino}phenyl)propanamide]
inhibition at 0.01 µM [1]: 34 ± 13%
inhibition at 0.001 µM [2]: 45 ± 14%

C[C@H](C(N)=O)c1ccc(Nc2nc(C(C)(C)C)cs2)cc1 [Compound 15, (2S)-2-{4-[(4-tert-Butyl-1,3-thiazol-2-yl)amino]phenyl}propanamide]
inhibition at 0.01 µM [1]: 45 ± 10%
inhibition at 0.001 µM [2]: 48 ± 8%

C[C@H](C(=O)N[C@H](C)C(=O)O)c1ccc(Nc2nc(C(F)(F)F)cs2)cc1 [Compound 16, (2R)-2-{[(2S)-2-(4-{[4-(Trifluoromethyl)-1,3-thiazol-2-yl]amino}phenyl)propanoyl]amino}propanoic acid]
inhibition at 0.01 µM [1]: 30 ± 15%
inhibition at 0.001 µM [2]: 42 ± 7%

CC(C)[C@H](NC(=O)[C@@H](C)c1ccc(Nc2nc(C(F)(F)F)cs2)cc1)C(=O)O [Compound 17, (2S)-3-Methyl-2-{[(2S)-2-(4-{[4-(trifluoromethyl)-1,3-thiazol-2-yl]amino}phenyl)propanoyl]amino}butanoic acid]
inhibition at 0.01 µM [1]: 40 ± 12%
melting point: 99 to 101 °C
inhibition at 0.001 µM [2]: 39 ± 2%

CC(C(=O)O)c1ccc(Nc2nc(C(F)(F)F)co2)cc1 (stereo not drawn) [Compound 18, 2-{4-[(4-Trifluoromethyl)-oxazol-2-yl]amino}phenyl propionic]
inhibition at 0.01 µM [1]: 60 ± 9%
inhibition at 0.01 µM [2, 4]: 47 ± 12%

C[C@H](C(=O)O)c1ccc(Nc2nc(C(F)(F)F)co2)cc1 [Compound 19, (2S)-2-(4-{[4-(Trifluoromethyl)-1,3-oxazol-2-yl]amino}phenyl)propanoic acid]
inhibition at 0.01 µM [1]: 36 ± 11%
inhibition at 0.001 µM [2]: 44 ± 10%

C[C@H](C(=O)O)c1ccc(N(C)c2nc(C(F)(F)F)co2)cc1 [Compound 20, (2S)-2-(4-{Methyl[4-(trifluoromethyl)-1,3-oxazol-2-yl]amino}phenyl)propanoic acid]
inhibition at 0.01 µM [1]: 44 ± 7%
inhibition at 0.001 µM [2]: 47 ± 8%

C[C@H](C(=O)NS(C)(=O)=O)c1ccc(Nc2nc(C(F)(F)F)co2)cc1 [Compound 21, (2S)—N-(Methylsulfonyl)-2-(4-{[4-(trifluoromethyl)-1,3-oxazol-2-yl]amino}phenyl) propanamide]
CXCL1 (% inhibition at 10^−8 M) [1]: 37 ± 2%
CXCL8 (% inhibition at 10^−9 M) [2]: 43 ± 6%

C[C@H](C(N)=O)c1ccc(Nc2nc(C(F)(F)F)co2)cc1 [Compound 22, (2S)-2-(4-{[4-(Trifluoromethyl)-1,3-oxazol-2-yl]amino}phenyl) propanamide]
inhibition at 0.01 µM [1]: 49 ± 6%
inhibition at 0.001 µM [2]: 58 ± 5%

C[C@H](C(N)=O)c1ccc(N(C)c2nc(C(F)(F)F)co2)cc1 [Compound 23, (2S)-2-(4-{Methyl-[4-(trifluoromethyl)-1,3-oxazol-2-yl]amino}phenyl)propanamide]
inhibition at 0.01 µM [1]: 39 ± 2%
inhibition at 0.001 µM [2]: 45 ± 13%

C[C@H](NC(=O)[C@@H](C)c1ccc(Nc2nc(C(F)(F)F)co2)cc1)C(=O)O [Compound 24, (2S)-2-{[(2S)-2-(4-{[4-(Trifluoromethyl)-1,3-oxazol-2-yl]amino}phenyl)propanoyl]amino}propanoic acid]
inhibition at 0.01 µM [1]: 34 ± 8%
inhibition at 0.01 µM [2, 4]: 54 ± 12%

C[C@H](NC(=O)[C@@H](C)c1ccc(Nc2nc(C(F)(F)F)co2)cc1)C(N)=O [Compound 25, (2S)—N-[(1S)-2-Amino-1-methyl-2-oxoethyl]-2-(4-{[4-(trifluoromethyl)-1,3-oxazol-2-yl]amino}phenyl) propanamide]
inhibition at 0.01 µM [1]: 39 ± 14%
inhibition at 0.001 µM [2]: 46 ± 12%
